Patent US12371432B2, “Haloallylamine compounds and application thereof” (TransThera Sciences (Nanjing), Inc., priority 2019, dated 2025)
Where a name gives a salt, the structure may show the parent alone.

Experiments:
Assay type in all cases: biochemical
[1] = target: T1, MAO-B (Homo sapiens, UniProt P27338); experiment: Selectivity against MAO-B enzyme (MAO-Glo)
T1 construct: purchased Active Motif
T1 sequence (P27338 1-520): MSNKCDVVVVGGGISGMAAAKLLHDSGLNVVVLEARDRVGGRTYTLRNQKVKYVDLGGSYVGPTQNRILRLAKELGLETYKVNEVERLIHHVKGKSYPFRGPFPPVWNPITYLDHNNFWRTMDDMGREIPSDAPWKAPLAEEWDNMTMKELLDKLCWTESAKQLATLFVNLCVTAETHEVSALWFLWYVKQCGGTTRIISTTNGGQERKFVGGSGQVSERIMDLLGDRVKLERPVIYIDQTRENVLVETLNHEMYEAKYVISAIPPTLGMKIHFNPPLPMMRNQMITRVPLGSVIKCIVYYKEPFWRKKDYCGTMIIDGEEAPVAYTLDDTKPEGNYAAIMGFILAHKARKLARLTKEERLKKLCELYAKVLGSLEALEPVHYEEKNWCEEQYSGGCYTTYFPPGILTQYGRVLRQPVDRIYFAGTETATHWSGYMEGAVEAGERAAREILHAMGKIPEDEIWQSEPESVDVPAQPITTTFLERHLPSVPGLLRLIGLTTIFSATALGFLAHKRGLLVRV
Procedure: (§1) (1) Instrument, Consumable and Reagent
(§2) Microplate reader (Perkin Elmer, EnVision), 384-well plate (Perkin Elmer), centrifuge (Eppendorf), MAO-Glo™ (Promega), MAO-A (Active Motif) and MAO-B (Active Motif).
(§3) (2) Preparation of Concentration Gradient Compound Solutions
(§4) An appropriate amount of the compound to be tested was taken, dissolved in DMSO to 10 mM and then stored. The solution was then gradiently diluted 4-fold with DMSO, 6 concentration gradients in total.
(§5) (3) Preparation of Enzyme Solutions
(§6) MAO-A/B mother liquor was diluted with the experimental buffer for MAO-A/B to obtain enzyme solutions of 2× concentrations.
(§7) (4) Preparation of Substrate Mixtures of 2× Concentrations
(§8) The mother liquor of MAO-A/B substrate mixture was diluted with the experimental buffer for MAO-A/B to obtain substrate mixtures of 2× concentrations.
(§9) 200 nL compound solutions or solvents of different concentrations and 10 μL MAO-A/B enzyme solutions of 2× concentrations were added into a 384-well plate, centrifuged at 1,000 rpm for 60 s, shaken to be mixed uniformly and then incubated at room temperature for 15 min. 10 μL substrate mixtures of 2× concentrations were then added into each well, and reaction was initiated. The 384-well plate was centrifuged at 1,000 rpm for 60 s, shaken for a uniform mixing and then incubated at room temperature for 60 min. 20 μL of test stop solution was added to stop reaction. Centrifugation was performed at 1,000 rpm for 60 s, and shaking was performed for uniform mixing. After 30 min of standing, the microplate reader was used to perform reading.
(§10) The inhibition rate was calculated according to the following formula: Inhibition rate (%)=(Signal_Max-Signal_sample)/(Signal_Max-Signal_min)×100 (6) Fitting of Dose-Response Curve
(§11) With the log value of concentration as the X axis and the percent inhibition rate as the Y axis, the log (inhibitor) vs. response-variable slope of analysis software GraphPad Prism 5 was used to fit a dose-response curve, thus obtaining the IC50 value of activity of each compound against the enzyme.

[2] = target: T2, rhVAP-1 (Homo sapiens, UniProt Q16853); experiment: Inhibitory activity against rhVAP-1 enzyme (Biological Example 2); settings: Table 2; benzylamine substrate, Amplex Red/HRP
T2 construct: purchased PeproTech
T2 sequence (Q16853 27-763 limits assumed): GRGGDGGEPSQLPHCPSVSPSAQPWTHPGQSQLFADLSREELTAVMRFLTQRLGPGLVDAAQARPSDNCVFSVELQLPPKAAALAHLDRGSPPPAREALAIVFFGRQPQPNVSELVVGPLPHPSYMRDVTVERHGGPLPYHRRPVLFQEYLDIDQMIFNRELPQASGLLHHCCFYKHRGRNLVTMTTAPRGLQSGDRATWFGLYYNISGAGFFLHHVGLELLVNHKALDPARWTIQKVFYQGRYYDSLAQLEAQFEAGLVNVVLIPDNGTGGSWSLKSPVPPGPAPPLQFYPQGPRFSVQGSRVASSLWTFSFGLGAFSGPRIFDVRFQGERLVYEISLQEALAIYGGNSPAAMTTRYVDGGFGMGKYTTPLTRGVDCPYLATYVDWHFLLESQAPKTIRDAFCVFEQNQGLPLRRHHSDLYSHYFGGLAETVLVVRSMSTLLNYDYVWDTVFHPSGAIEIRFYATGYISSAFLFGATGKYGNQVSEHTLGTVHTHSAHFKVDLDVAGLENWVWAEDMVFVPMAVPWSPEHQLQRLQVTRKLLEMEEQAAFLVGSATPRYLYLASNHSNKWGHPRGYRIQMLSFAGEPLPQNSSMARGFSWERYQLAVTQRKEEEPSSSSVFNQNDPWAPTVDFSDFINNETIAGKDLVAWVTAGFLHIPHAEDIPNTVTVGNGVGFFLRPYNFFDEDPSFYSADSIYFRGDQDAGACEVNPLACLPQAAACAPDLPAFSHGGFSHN
Procedure: (§12) 1. Inhibitory Activity of Compounds Against rhVAP-1 Enzyme
as §1
Microplate reader (Perkin Elmer, Nivo 5S), black unclear-bottom 96-well plate (Corning) and rhVAP-1 (PeproTech)
as §3
(§13) An appropriate amount of the compound to be tested was taken, dissolved in DMSO to 10 mM and then stored. Before the study, an appropriate amount of mother liquor of the 10 mM compound to be tested was taken and gradiently diluted 3-fold with DMSO, 10 concentration gradients in total. Each concentration gradient was then diluted 100-fold with 0.1 M of PBS.
as §5
(§14) An appropriate amount of protein diluent was added into rhVAP-1 powder, obtaining 1 mg/mL of mother liquor for storage. Before the study, PBS was used to carry out dilution to obtain enzyme solutions of 4× concentrations.
as §7
(§15) An appropriate amount of benzylamine was weighed and dissolved with PBS to obtain 200 mM of benzylamine solution. The benzylamine solution was added with 2 mM of Amplex Red mother liquor and 500 U/mL of HRP mother liquor and diluted with PBS to obtain substrate mixtures of 2× concentrations.
10 μL compound solutions of different concentrations, 25 μL rhVAP-1 enzyme solutions of 4× concentrations and 15 μL of PBS were first added into a 96-well plate, shaken to be mixed uniformly and then incubated at 37° C. for 30 min. 50 μL substrate mixtures of 2× concentrations were then added into each well, and the microplate reader was immediately used to perform detection with 580 nm (20 nm) exciting light and 620 nm (10 nm) emission light for 5 min each time, 30 min in total. The inhibition rate was calculated according to the following formula: V (RFU/min)=(Ft (RFU)−F0 (RFU))/(time(min)) Inhibition rate (%)=100%−Vcmpd (RFU/min)/Vmax (RFU/min)×100%
V: fluorescence change rate; Ft: fluorescence reading at time point t; F0: initial fluorescence reading; Time: duration t; Vcmpd: fluorescence change rate of tested compound; Vmax: Max hole fluorescence change rate.
(6) Fitting of Dose-Response Curve
as §11

[3] = target: T3, MAO-A (Homo sapiens, UniProt P21397); experiment: Selectivity against MAO-A enzyme (MAO-Glo)
T3 construct: purchased Active Motif
T3 sequence (P21397 1-527): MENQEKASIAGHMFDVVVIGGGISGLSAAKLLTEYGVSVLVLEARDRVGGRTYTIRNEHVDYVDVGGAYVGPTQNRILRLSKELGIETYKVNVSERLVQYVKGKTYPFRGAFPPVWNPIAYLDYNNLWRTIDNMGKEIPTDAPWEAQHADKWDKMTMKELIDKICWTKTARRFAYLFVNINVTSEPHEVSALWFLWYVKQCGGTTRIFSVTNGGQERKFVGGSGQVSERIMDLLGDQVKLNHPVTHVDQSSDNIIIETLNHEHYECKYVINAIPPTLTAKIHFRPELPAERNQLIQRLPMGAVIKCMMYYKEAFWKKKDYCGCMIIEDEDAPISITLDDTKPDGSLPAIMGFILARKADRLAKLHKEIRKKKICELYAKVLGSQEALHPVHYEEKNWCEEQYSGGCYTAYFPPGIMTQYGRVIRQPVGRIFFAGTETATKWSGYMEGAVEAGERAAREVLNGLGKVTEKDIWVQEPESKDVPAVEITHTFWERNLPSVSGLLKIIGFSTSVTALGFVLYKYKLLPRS
Procedure: as §1, §2, §3, §4, §5, §6, §7, §8, §9, §10, §11

[4] = target: T4, rhAOC1 (Homo sapiens, UniProt P19801); experiment: Selectivity against rhAOC1 enzyme (Biological Example 1); settings: Table 1; histamine substrate, Amplex Red/HRP
T4 construct: purchased R&D
T4 sequence (P19801 20-751): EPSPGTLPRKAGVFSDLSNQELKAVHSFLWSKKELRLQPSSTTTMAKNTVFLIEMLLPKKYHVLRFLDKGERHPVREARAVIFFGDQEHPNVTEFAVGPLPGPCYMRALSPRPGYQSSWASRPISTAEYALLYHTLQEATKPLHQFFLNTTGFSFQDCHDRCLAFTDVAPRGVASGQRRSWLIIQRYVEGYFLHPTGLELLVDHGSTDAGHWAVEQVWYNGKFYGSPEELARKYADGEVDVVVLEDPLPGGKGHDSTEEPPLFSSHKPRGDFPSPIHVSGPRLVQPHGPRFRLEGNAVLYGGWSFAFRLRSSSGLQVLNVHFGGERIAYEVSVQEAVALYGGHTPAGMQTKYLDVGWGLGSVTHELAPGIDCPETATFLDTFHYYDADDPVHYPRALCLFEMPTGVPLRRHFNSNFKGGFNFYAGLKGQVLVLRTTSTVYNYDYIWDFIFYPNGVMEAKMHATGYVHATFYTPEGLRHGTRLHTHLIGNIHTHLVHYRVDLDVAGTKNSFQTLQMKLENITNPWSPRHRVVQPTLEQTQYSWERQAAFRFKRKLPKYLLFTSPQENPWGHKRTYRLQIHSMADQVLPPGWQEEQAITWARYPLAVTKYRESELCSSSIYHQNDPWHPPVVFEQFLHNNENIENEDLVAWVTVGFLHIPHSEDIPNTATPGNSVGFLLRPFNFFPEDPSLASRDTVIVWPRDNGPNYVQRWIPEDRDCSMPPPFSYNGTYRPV
Procedure: 2. Selectivity of Compounds Against rhAOC1 Enzyme
as §1
Microplate reader (Perkin Elmer, Nivo 5S), black unclear-bottom 96-well plate (Corning) and rhAOC1 (R&D)
as §3
as §13, with “10-fold” for “100-fold”
as §5
An appropriate amount of rhAOC1 mother liquor with a concentration of 0.441 mg/mL was taken and diluted with an appropriate amount of 50 mM HEPES buffer solution to obtain enzyme solutions of 4× concentrations.
as §7
as §15, with “histamine” for “benzylamine”, “50 mM of HEPES buffer solution” for “PBS”, “20” for “200”
10 μL compound solutions of different concentrations, 25 μL rhAOC1 enzyme solutions of 4× concentrations and 15 μL of 50 mM HEPES buffer solution were first added into a 96-well plate, shaken to be mixed uniformly and then incubated at 37° C. for 30 min. 50 μL substrate mixtures of 2× concentrations were then added into each well, and the microplate reader was immediately used to detect fluorescence intensity of each well with 580 nm (20 nm) exciting light and 620 nm (10 nm) emission light for 5 min each time, 30 min in total. […]
(§16) V: fluorescence change rate; Ft: fluorescence reading at time point t; F0: initial fluorescence reading; Time: duration t; Vcmpd: fluorescence change rate of tested compound; Vmax: Max hole fluorescence change rate. […]

[5] = target: T2, rhVAP-1; experiment: Inhibitory activity against rhVAP-1 enzyme (Biological Example 1); settings: Table 1; benzylamine substrate, Amplex Red/HRP
Procedure: as §12, §1
Multifunctional microplate reader (MD, FlexStation3), black unclear-bottom 96-well plate (Corning), and rhVAP-1 (PeproTech)
as §3
An appropriate amount of the compound to be tested was taken, dissolved in DMSO to 10 mM and then stored. Before the study, an appropriate amount of mother liquor of the 10 mM compound to be tested was diluted with DMSO, so that 1 mM solution was obtained. The solution was then gradiently diluted 3-fold with DMSO, 10 concentration gradients in total. PBS was then used to carry out 100-fold dilution, so that compound solutions of 10× series of concentrations were prepared.
as §5, §14, §7, §15
10 μL compound solutions of different concentrations, 25 μL rhVAP-1 enzyme solutions of 4× concentrations and 15 μL of PBS were first added into a 96-well plate, shaken to be mixed uniformly and then incubated at 37° C. for 30 min. 50 μL substrate mixtures of 2× concentrations were then added into each well, and the microplate reader was immediately used to detect fluorescence intensity of each well with 565 nm exciting light and 590 nm emission light for 5 min each time, 25 min in total. […]
as §16

IC50 [1] [µM]	IC50 [2] [µM]	IC50 [3] [µM]	IC50 [4] [µM]	IC50 [5] [µM]	SMILES
> 100	0.008	> 100			CC(C)(C)CN1CCc2nn(C/C(=C/F)CN)cc2C1=O [Compound A37 hydrochloride, (E)-2-(2-(aminomethyl)-3-fluoroallyl)-5-neopentyl-2,5,6,7-tetrahydro-4H-pyrazolo[4,3-c]pyridin-4-one]
			26.9	0.079	NC/C(=C\F)Cn1ccc2cc(C(=O)N3CCOCC3)ccc21 [Compound C1, (E)-(1-(2-(aminomethyl)-3-fluoroallyl)-1H-indol-5-yl)(morpholino)methanone]
88.9	0.013	77.4			NC/C(=C\F)Cn1ncc2c(=O)n(C3CC3)ccc21 [Compound A44 hydrochloride, (E)-1-(2-(aminomethyl)-3-fluoroallyl)-5-cyclopropyl-1,5-dihydro-4H-pyrazolo[4,3-c]pyridin-4-one]
